# Patent publication US10525110B2, “Methods for inducing partial apoptosis using caspase polypeptides” (Bellicum Pharmaceuticals, Inc., priority 2013, dated 2020)
# Legend:
# [1] = system: F-Casp9M.I.GFPhigh-transduced T cells; assay: Annexin-V/7-AAD staining of GFPhigh-selected iCasp9M-transduced T cells after CID; assay type: cell-based, human
# [2] = system: non-transduced cells; assay: Viability of non-transduced cells with AP20187; assay type: cell-based, human
# Protocol: Suicide gene functionality was assessed by adding a small molecule synthetic homodimerizer, AP20187 (Ariad Pharmaceuticals; Cambridge, Mass.), at 10 nM final concentration the day following CD19 immunomagnetic selection. Cells were stained with annexin V and 7-amino-actinomycin (7-AAD)(BD Pharmingen) at 24 hours and analyzed by flow cytometry. Cells negative for both annexin V and 7-AAD were considered viable, cells that were annexin V positive were apoptotic, and cells that were both annexin V and 7-AAD positive were necrotic. The percentage killing induced by dimerization was corrected for baseline viability as follows: Percentage killing=100%−(% Viability in AP20187-treated cells÷% Viability in non-treated cells).
# The day following immunomagnetic selection, 10 nM of the chemical inducer of dimerization, AP20187, was added to induce apoptosis, which appeared within 24 hours. […] Killing efficiency after correction for baseline viability was about 92.9%±3.8%. Large-scale CD19 selection produced cells that were killed with similar efficiency as small-scale selection: mean viability with and without AP20187, and percentage killing, in large and small scale were about 3.9%, about 84.0%, about 95.4% (n=3) and about 6.6%, about 79.3%, about 91.4% (n=5) respectively. […]
# [3] = system: iCasp9-transduced MSCs; assay: Apoptosis of iCasp9-transduced undifferentiated MSCs in vitro (annexin V-PE/7-AAD); assay type: cell-based, human; settings: CID 50 nM, 24 hours, FACS example
# Protocol: Undifferentiated MSCs. The chemical inducer of dimerization (CID) (AP20187; ARIAD Pharmaceuticals, Cambridge, Mass.) was added at 50 nM to iCasp9-transduced MSCs cultures in complete medium. Apoptosis was evaluated 24 hours later by FACS analysis, after cell harvest and staining with annexin V-PE and 7-AAD in annexin V binding buffer (BD Biosciences, San Diego, Calif.). Control iCasp9-transduced MSCs were maintained in culture without exposure to CID.
# The proapoptotic gene product iCasp9 can activated by a small chemical inducer of dimerization (CID), AP20187, an analogue of tacrolimus that binds the FK506-binding domain present in the iCasp9 product. Non-transduced MSCs have a spontaneous rate of apoptosis in culture of approximately 18% (±7%) as do iCasp9-positive cells at baseline (15±6%, P=0.47). Addition of CID (50 nM) to MSC cultures after transduction with iCasp9-ΔCD19 results in the apoptotic death of more than 90% of iCasp9-positive cells within 24 hrs (93±1%, P<0.0001), while iCasp9-negative cells retain an apoptosis index similar to that of non-transduced controls (20±7%, P=0.99 and P=0.69 vs. non-transduced controls with or without CID respectively) (see FIGS. 17A and 70B). […] Apoptosis was evaluated 24 hours later by FACS analysis, after cell harvest and staining with annexin V-PE and 7-AAD. […]
# [4] = system: differentiated progeny of human MSCs expressing iCasp9; assay: Apoptosis of differentiated iCasp9-positive MSCs (TUNEL, cell density); assay type: cell-based; settings: adipocytic differentiation, 50 nM CID, after 24 hours (from 584 cells/mm2)
# Protocol: Differentiated MSCs. Transduced MSCs were differentiated as presented above. At the end of the differentiation period, CID was added to the differentiation media at 50 nM. Cells were stained appropriately for the tissue being studied, as presented above, and a contrast stain (methylene azur or methylene blue) was used to evaluate the nuclear and cytoplasmic morphology. In parallel, tissues were processed for terminal deoxynucleotidyl-transferase dUTP nick end labeling (TUNEL) assay as per manufacturer instructions (In Situ Cell Death Detection Kit, Roche Diagnostics, Mannheim, Germany). For each time point, four random fields were photographed at a final magnification of 40× and the images were analyzed with ImageJ software version 1.43o (NIH, Bethesda, Md.). Cell density was calculated as the number of nuclei (DAPI positivity) per unit of surface area (in mm^2). The percentage of apoptotic cells was determined as the ratio of the number of nuclei with positive TUNEL signal (FITC positivity) to the total number of nuclei. Controls were maintained in culture without CID.
# After culture in adipocytic differentiation media, iCasp9-positive cells gave rise to adipocytes. After exposure to 50 nM CID, progressive apoptosis was observed as evidenced by an increasing proportion of TUNEL-positive cells. […]
# [5] = system: iCasp9-ΔCD19-transduced MSCs; assay: In vivo killing of iCasp9-ΔCD19-transduced MSCs in SCID mice (luminescence, qPCR)
# [6] = system: EBV-specific and CMV-specific T cells; assay: Pentamer analysis of virus-specific T cells after AP20187 treatment of allostimulated cells; assay type: cell-based, human; settings: 10 nM after 4 days reactivation with allogeneic PBMC
# [7] = representative example of 3 separate experiments
smiles,measurement,setting,value
CC[C@H](C(=O)N1CCCC[C@H]1C(=O)O[C@H](CCc1ccc(OC)c(OC)c1)c1cccc(OCC(=O)NCC(CNC(=O)COc2cccc([C@@H](CCc3ccc(OC)c(OC)c3)OC(=O)[C@@H]3CCCCN3C(=O)[C@@H](CC)c3cc(OC)c(OC)c(OC)c3)c2)CN(C)C)c1)c1cc(OC)c(OC)c(OC)c1 [AP20187],time to apoptotic characteristics (cell shrinkage and fragmentation) after CID administration,[1]; GFPhigh-selected cells,≤ 14 h
same,"apoptotic phenotype (annexin V+, 7-AAD−)",[1]; [7],64%
same,"necrotic phenotype (annexin V+, 7-AAD+)",[1]; [7],32%
same,toxicity to non-transduced cells,[2],non-toxic
same,viability of non-transduced cells with AP20187,[2]; n=6,about 86%±9
same,annexin positive iCasp9-CD19-positive cells (iCasp pos/CID),[3],Ninety-three
same,annexin positive negative population (iCasp neg/CID),[3],19%
same,cell density after CID,[4],< 14 cells/mm2
same,"surviving iCasp9-positive cells, % of the original population","[5]; after one week, qPCR",0.7%
same,effect on cells negative for iCasp9,[5]; luminescence,not affected
same,effect on virus-specific T cells,[6],spares (and thereby enriches) viral reactive subpopulations
